By IC50 is commonly meant the point on the concentration scale where inhibition reaches its midpoint.

The target in assay [1] is Vascular endothelial growth factor receptor 3 (Homo sapiens) (UniProt P35916). The experiment in a line: Inhibition of Flt4 at 10 uM. Also noted: scale not given: the % may be the effect or the level left.
The species entered for assay [2] is Homo sapiens. The assay can be described thus: Inhibition of InR at 10 uM. Also noted: scale not given: the % may be the effect or the level left.
Assay [3] concerns the target Receptor tyrosine-protein kinase erbB-2 (Homo sapiens) (UniProt P04626). The experiment in a line: Inhibition of ErbB2/Her2 at 10 uM. Also noted: scale not given: the % may be the effect or the level left.
The target of assay [4] is RAC-alpha serine/threonine-protein kinase (Homo sapiens) (UniProt P31749). The experiment in a line: Inhibition of PKB/Akt at 10 uM. Also noted: scale not given: the % may be the effect or the level left.
The species entered for assay [5] is Homo sapiens. The experiment in a line: Inhibition of PKA at 10 uM. The arrangement: scale not given: the % may be the effect or the level left.
Assay [6] addresses T1, Vascular endothelial growth factor receptor 2 (Homo sapiens, UniProt P35968). The assay can be described thus: Inhibition of VEGFR2 assessed as inhibition of phosphorylation in presence of 2 uM ATP by HTRF assay. In kind it is functional. In general terms: In TR-FRET formats the signal depends on donor and acceptor labels being close together.
The target of assay [7] is Glycogen synthase kinase-3 beta (Homo sapiens) (UniProt P49841). The assay can be described thus: Inhibition of GSK3-beta at 10 uM. The arrangement: scale not given: the % may be the effect or the level left.
Assay [8] deals with Fibroblast growth factor receptor 1 (Homo sapiens) (UniProt P11362). The assay can be described thus: Inhibition of FGFR1 at 10 uM. The arrangement: scale not given: the % may be the effect or the level left.
For assay [9], the species on record is Homo sapiens. The experiment in a line: Inhibition of Cdk1 at 10 uM. The arrangement: scale not given: the % may be the effect or the level left.
For assay [10], the target named is Vascular endothelial growth factor receptor 1 (Homo sapiens, UniProt P17948). The assay can be described thus: Inhibition of VEGFR1 assessed as inhibition of phosphorylation in presence of 2 uM ATP by HTRF assay. The format is functional.
Assay [11] addresses Receptor-type tyrosine-protein kinase FLT3 (Homo sapiens) (UniProt P36888). The experiment in a line: Inhibition of Flt3 at 10 uM. Also noted: scale not given: the % may be the effect or the level left.
The target in assay [12] is Insulin-like growth factor 1 receptor (Homo sapiens) (UniProt P08069). The assay can be described thus: Inhibition of IGF1R at 10 uM. The arrangement: scale not given: the % may be the effect or the level left.
Assay [13] deals with RAF proto-oncogene serine/threonine-protein kinase (Homo sapiens) (UniProt P04049). The assay can be described thus: Inhibition of Raf1 at 10 uM. The arrangement: scale not given: the % may be the effect or the level left.
In assay [14] the target is Epidermal growth factor receptor (Homo sapiens) (UniProt P00533). The assay can be described thus: Inhibition of ErbB1 at 10 uM. Also noted: scale not given: the % may be the effect or the level left.
The species named for assay [15] is Homo sapiens. The assay can be described thus: Inhibition of bcr-Abl at 10 uM. Also noted: scale not given: the % may be the effect or the level left.
Assay [16] concerns the target Hepatocyte growth factor receptor (Homo sapiens) (UniProt P08581). The assay can be described thus: Inhibition of cMet at 10 uM. Also noted: scale not given: the % may be the effect or the level left.
Assay [17] concerns the target Cyclin-dependent kinase 2 (Homo sapiens) (UniProt P24941). The assay can be described thus: Inhibition of Cdk2 at 10 uM. Also noted: scale not given: the % may be the effect or the level left.
The target of assay [18] is T1, Vascular endothelial growth factor receptor 2. The assay can be described thus: Inhibition of VEGFR2 assessed as inhibition of phosphorylation in human 293 cells by cell-based ELISA. The format is functional, HEK293.

Chain of Receptor-type tyrosine-protein kinase FLT3 (Homo sapiens) (P36888 whole entry): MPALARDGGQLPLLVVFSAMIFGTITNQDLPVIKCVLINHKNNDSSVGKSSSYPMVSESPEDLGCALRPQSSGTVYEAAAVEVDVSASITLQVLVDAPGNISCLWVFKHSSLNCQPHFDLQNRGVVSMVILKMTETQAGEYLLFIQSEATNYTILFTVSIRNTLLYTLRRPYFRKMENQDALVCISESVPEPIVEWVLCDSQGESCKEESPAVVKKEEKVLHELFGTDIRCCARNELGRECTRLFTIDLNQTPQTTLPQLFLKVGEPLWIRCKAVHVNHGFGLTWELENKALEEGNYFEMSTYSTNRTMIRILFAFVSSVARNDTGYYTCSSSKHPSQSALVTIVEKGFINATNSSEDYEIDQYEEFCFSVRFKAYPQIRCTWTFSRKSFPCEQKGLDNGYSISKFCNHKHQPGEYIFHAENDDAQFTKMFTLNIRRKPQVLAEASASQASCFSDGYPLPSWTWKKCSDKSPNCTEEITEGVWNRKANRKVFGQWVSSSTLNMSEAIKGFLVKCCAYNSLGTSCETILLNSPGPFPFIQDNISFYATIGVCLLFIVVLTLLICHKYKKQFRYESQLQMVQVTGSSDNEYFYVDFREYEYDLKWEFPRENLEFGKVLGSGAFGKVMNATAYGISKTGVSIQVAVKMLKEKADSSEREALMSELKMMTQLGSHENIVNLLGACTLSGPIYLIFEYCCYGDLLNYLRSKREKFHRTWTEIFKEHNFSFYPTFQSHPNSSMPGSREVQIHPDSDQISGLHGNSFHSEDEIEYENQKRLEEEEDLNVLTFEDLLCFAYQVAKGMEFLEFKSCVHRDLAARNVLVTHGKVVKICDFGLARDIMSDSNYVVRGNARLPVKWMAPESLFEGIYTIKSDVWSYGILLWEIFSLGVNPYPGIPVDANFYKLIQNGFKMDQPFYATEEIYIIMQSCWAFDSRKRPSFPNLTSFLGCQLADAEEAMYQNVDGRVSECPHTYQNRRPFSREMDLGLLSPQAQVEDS
Chain of Fibroblast growth factor receptor 1 (Homo sapiens) (P11362 22-822 limits assumed): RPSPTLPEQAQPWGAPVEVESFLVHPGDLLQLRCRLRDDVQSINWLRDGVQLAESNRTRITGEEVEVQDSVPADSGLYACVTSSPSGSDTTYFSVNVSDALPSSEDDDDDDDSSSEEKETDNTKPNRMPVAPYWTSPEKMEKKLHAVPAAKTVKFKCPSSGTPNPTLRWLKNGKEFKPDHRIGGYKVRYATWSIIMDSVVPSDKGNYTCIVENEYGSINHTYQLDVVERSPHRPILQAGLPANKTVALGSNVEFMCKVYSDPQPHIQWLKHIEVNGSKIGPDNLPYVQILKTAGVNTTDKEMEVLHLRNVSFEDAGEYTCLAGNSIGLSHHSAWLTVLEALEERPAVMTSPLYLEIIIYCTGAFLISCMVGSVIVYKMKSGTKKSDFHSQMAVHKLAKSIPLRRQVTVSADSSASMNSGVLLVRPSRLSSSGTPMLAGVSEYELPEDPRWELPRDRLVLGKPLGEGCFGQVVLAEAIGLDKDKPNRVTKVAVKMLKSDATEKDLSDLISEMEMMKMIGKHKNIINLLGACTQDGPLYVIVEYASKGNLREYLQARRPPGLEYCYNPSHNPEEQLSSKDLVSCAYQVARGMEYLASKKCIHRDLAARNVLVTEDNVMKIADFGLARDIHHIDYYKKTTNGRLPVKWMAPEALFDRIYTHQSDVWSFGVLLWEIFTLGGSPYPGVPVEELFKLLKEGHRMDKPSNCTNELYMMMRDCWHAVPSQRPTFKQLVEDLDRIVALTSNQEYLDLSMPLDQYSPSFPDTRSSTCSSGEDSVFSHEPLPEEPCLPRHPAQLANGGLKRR
Chain of Insulin-like growth factor 1 receptor (Homo sapiens) (P08069 31-736 limits assumed): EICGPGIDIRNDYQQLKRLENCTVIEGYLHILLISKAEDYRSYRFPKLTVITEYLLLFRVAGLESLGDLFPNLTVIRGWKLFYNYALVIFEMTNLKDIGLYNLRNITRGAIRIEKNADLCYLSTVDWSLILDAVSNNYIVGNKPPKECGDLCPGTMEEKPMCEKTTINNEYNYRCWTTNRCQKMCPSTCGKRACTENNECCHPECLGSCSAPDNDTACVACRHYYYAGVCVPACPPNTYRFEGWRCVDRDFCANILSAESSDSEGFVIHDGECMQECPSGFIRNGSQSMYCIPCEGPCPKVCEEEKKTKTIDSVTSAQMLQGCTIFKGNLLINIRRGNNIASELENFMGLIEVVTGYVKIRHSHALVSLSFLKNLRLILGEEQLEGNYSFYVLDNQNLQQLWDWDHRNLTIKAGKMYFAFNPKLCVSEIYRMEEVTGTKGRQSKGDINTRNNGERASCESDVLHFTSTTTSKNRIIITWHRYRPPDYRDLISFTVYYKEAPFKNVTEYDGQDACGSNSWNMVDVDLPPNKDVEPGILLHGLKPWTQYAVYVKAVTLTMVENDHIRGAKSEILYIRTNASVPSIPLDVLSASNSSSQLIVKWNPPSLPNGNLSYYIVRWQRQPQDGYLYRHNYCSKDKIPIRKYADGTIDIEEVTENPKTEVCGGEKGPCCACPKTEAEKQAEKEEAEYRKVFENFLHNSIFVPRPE
Chain of Insulin-like growth factor 1 receptor (Homo sapiens) (P08069 741-1367 limits assumed): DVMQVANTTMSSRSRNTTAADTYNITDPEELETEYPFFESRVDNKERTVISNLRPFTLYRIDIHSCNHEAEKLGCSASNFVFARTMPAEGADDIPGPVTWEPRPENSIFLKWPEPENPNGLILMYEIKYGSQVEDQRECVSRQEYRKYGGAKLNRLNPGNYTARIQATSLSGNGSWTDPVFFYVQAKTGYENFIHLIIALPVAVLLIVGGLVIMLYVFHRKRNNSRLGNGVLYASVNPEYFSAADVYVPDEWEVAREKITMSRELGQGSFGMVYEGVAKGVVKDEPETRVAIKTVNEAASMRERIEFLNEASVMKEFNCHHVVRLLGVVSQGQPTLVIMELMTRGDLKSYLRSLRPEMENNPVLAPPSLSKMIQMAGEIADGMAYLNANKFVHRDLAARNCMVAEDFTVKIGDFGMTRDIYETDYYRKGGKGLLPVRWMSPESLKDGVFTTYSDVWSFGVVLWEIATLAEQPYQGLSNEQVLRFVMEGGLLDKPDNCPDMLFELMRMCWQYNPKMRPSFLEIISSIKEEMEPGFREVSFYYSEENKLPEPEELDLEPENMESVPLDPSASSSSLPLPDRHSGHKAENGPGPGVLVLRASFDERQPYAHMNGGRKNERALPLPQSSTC
Chain of Receptor tyrosine-protein kinase erbB-2 (Homo sapiens) (P04626 whole entry): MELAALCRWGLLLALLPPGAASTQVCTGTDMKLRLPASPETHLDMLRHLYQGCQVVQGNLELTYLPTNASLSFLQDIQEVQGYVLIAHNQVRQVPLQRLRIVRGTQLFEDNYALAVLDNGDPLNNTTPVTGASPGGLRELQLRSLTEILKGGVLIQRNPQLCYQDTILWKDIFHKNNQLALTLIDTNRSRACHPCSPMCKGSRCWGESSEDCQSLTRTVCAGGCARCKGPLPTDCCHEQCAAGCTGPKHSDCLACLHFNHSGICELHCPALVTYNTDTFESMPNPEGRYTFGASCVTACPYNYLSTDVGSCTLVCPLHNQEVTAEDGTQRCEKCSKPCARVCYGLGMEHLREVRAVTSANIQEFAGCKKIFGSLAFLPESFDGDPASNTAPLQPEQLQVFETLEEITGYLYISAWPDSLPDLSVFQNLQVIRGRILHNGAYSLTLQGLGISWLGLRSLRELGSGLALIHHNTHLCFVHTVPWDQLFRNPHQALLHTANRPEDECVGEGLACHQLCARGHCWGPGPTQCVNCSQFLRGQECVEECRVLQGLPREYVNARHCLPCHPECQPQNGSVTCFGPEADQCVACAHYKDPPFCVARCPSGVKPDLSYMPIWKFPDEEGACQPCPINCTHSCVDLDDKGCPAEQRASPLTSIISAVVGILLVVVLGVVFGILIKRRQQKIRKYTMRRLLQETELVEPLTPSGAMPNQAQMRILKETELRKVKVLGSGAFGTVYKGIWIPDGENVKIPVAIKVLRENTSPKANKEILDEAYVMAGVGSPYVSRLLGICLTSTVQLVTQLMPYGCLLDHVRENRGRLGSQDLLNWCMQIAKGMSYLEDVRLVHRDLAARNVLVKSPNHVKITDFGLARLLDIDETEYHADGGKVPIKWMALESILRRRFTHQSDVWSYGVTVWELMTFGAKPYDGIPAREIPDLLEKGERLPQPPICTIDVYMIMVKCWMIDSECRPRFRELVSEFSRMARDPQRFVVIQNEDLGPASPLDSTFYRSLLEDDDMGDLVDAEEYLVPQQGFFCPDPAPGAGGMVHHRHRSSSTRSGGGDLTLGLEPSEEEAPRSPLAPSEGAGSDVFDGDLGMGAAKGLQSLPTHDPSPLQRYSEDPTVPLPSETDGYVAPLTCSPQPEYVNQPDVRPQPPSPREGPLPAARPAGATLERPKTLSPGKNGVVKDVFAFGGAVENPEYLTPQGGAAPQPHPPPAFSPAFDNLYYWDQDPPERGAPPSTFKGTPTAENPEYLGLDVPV
Chain of RAF proto-oncogene serine/threonine-protein kinase (Homo sapiens) (P04049 whole entry): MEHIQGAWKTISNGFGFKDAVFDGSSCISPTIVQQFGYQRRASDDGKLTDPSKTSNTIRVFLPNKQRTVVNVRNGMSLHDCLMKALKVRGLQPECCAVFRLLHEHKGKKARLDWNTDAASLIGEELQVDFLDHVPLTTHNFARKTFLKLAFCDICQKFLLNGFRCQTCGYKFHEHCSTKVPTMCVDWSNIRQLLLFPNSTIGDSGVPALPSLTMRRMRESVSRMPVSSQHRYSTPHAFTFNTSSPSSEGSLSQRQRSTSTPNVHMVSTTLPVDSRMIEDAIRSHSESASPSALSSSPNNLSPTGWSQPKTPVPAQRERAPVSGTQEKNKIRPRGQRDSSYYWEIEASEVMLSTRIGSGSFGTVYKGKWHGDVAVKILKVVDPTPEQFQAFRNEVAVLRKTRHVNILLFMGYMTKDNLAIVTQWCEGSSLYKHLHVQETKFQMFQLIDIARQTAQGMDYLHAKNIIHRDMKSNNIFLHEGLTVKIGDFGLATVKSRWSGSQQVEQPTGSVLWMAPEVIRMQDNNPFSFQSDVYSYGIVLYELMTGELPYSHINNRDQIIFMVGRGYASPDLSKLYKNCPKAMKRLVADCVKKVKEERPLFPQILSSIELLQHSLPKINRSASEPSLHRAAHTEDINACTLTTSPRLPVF

In the case of `O=C(Nc1ccc(OC(F)(F)F)cc1)c1nccn1CCc1ccncc1`, the Activity in assay [1], in assay [2], in assay [3], in assay [4], in assay [5] and in assay [7] was > 30% throughout. Besides, the Activity was > 30% in assay [8]; > 30% in assay [9]; > 30% in [11]; > 30% in assay [12]; > 30% in [13]; < 30% in assay [14]. In addition, the Activity in [15], in assay [16] and in [17] was > 30% each time. Also, the IC50 was found to be 0.79 µM in assay [6], 4.27 µM in assay [10] and 1.05 µM in assay [18].
Turning to `O=C(Nc1ccc(Cl)cc1)c1ccnn1CCc1cnoc1`, the Activity in assay [1], in assay [2], in assay [3], in assay [4], in assay [5] and in assay [7] was > 30% throughout. Further, the Activity in assay [8] is > 30%; in assay [9], > 30%; in assay [11], > 30%; in assay [12] it was > 30%; in assay [13] it was > 30%; in assay [14], < 30%. Also, the Activity in assay [15], in assay [16] and in assay [17] was > 30% each time. Moreover, the concentration for half-maximal inhibition (IC50) in assay [6], in [10] and in assay [18] was > 10 µM in each case.
With `O=C(Nc1ccc(Cl)cc1)c1cc2ccccc2n1CCc1ccncc1`, the Activity in assay [1], in [2], in [3], in assay [4], in [5] and in assay [7] was > 30% in each case. Besides, the Activity in assay [8] was > 30%; in [9], > 30%; in assay [11], > 30%; in assay [12], > 30%; in assay [13] it was > 30%; in [14] it was < 30%. Besides, the Activity in assay [15], in assay [16] and in [17] was > 30% each time. Besides, the half-inhibitory concentration (IC50) in [6], in [10] and in [18] was > 10 µM each time.
On to `O=C(Nc1ccc(OC(F)(F)F)cc1)c1nnnn1CCc1ccncc1`, for which the Activity in assay [1], in assay [2], in assay [3], in assay [4], in [5] and in assay [7] was > 30% in each case. Moreover, the Activity in assay [8] is > 30%; in [9] it was > 30%; in [11], > 30%; in assay [12], > 30%; in assay [13] it was > 30%; in assay [14] it was < 30%. Moreover, the Activity in assay [15], in assay [16] and in assay [17] was > 30% each time. In addition, the figures for the IC50 in [6], in assay [10] and in [18] were 2.65 µM, 3.88 µM and 2.97 µM, respectively.
With `CC(C)(C)c1ccc(NC(=O)c2nccn2CCc2ccncc2)cc1`, the Activity in [1], in [2], in [3], in assay [4], in assay [5] and in assay [7] was > 30% in each case. In addition, the Activity in assay [8] was > 30%; in assay [9], > 30%; in assay [11], > 30%; in [12], > 30%; in [13] it was > 30%; in assay [14], < 30%. In addition, the Activity in [15], in assay [16] and in [17] was > 30% each time. In addition, the IC50 is 0.94 µM in assay [6], 3.86 µM in [10] and 2.25 µM in assay [18].
As to `Cc1cc(C(=O)Nc2ccc(Cl)cc2)n(CCc2ccncc2)n1`, the Activity in assay [1], in [2], in assay [3], in assay [4], in [5] and in assay [7] was > 30% each time. For the same molecule, the Activity in assay [8] was > 30%; in assay [9] it was > 30%; in [11], > 30%; in assay [12], > 30%; in assay [13], > 30%; in assay [14], < 30%. In addition, the Activity in assay [15], in assay [16] and in assay [17] was > 30% each time. Besides, the IC50 is 0.78 µM in [6], 1.22 µM in [10] and 2.54 µM in assay [18].
`O=C(Nc1ccc(C(F)(F)F)c(Cl)c1)c1nnnn1CCc1ccncc1`: the Activity in assay [1], in [2], in [3], in assay [4], in [5] and in assay [7] was > 30% throughout. The Activity in assay [8] is > 30%; in [9], > 30%; in assay [11] it was > 30%; in [12], > 30%; in assay [13], > 30%; in assay [14] it was < 30%. Besides, the Activity in assay [15], in assay [16] and in assay [17] was > 30% in each case. In addition, the IC50 in [6], in assay [10] and in [18] was > 10 µM in each case.
`O=C(Nc1ccc(Cl)cc1)c1nnnn1CCc1ccncc1`: the Activity in [1], in assay [2], in assay [3], in assay [4], in assay [5] and in assay [7] was > 30% in each case. The Activity is > 30% in assay [8]; > 30% in [9]; > 30% in assay [11]; > 30% in [12]; > 30% in assay [13]; < 30% in [14]. In addition, the Activity in assay [15], in assay [16] and in assay [17] was > 30% in each case. The IC50 was determined as 0.64 µM in assay [6], 0.89 µM in assay [10] and 2.03 µM in assay [18].
Turning to `O=C(Nc1cccc(OC(F)(F)F)c1)c1ccnn1CCc1ccncc1`, the Activity in [1], in assay [2], in [3], in assay [4], in assay [5] and in [7] was > 30% each time. The Activity is > 30% in assay [8]; > 30% in [9]; > 30% in assay [11]; > 30% in [12]; > 30% in [13]; < 30% in assay [14]. Besides, the Activity in assay [15], in [16] and in assay [17] was > 30% each time. Further, the concentration for half-maximal inhibition (IC50) is 0.37 µM in [6], 0.45 µM in assay [10] and 0.28 µM in assay [18].
Consider `CC(C)(C)c1ccc(NC(=O)c2nnnn2CCc2ccncc2)cc1`, for which the Activity in assay [1], in assay [2], in assay [3], in assay [4], in [5] and in [7] was > 30% each time. Also, the Activity was > 30% in assay [8]; > 30% in [9]; > 30% in [11]; > 30% in assay [12]; > 30% in assay [13]; < 30% in assay [14]. Also, the Activity in assay [15], in assay [16] and in assay [17] was > 30% each time. In addition, the IC50 in assay [6], in [10] and in assay [18] was > 10 µM each time.
In the case of `O=C(Nc1ccc(Cl)cc1)c1ccnn1CCc1ccc(F)c(F)c1`, the Activity in assay [1], in assay [2], in [3], in [4], in [5] and in assay [7] was > 30% each time. In addition, the Activity is > 30% in [8]; > 30% in assay [9]; > 30% in assay [11]; > 30% in [12]; > 30% in assay [13]; < 30% in assay [14]. In addition, the Activity in assay [15], in assay [16] and in [17] was > 30% in each case. The IC50 in assay [6], in [10] and in assay [18] was > 10 µM throughout.
